In ChEMBL document CHEMBL5143508, “Design, synthesis and biological evaluation of novel o-aminobenzamide derivatives as potential anti-gastric cancer agents in vitro and in vivo” (Eur J Med Chem, 2022):
Where “and” joins values, the source holds several entries; their conditions need not be identical. Equal values may be shown once. Calls of active or inactive are those of the source. No cut-off for these calls is given here.

Experiments:
[1] = system: HGC-27; assay: Induction of apoptosis in human HGC-27 cells assessed as early apoptotic cells at 0.5 uM incubated for 48 hrs by annexin V FITC/propidium iodide staining based flow cytometry (reference value: 0.66 %); format: functional
[2] = system: HGC-27; assay: Induction of cell cycle arrest in human HGC-27 cells assessed as reduction in accumulation of cells at G0/G1 phase at 0.5 to 8 uM incubated for 24 hrs by PI staining based flow cytometry analysis; format: functional; conditions: dose 0.5-8 µM
[3] = system: HGC-27; assay: Induction of apoptosis in human HGC-27 cells assessed as viable cells at 0.5 uM incubated for 48 hrs by annexin V FITC/propidium iodide staining based flow cytometry (reference value: 93.0 %); format: functional; conditions: read-out: Activity
[4] = system: HGC-27; assay: Induction of apoptosis in human HGC-27 cells assessed as upregulation in cleaved caspase-3 expression at 0.5 to 8 uM incubated for 48 hrs by Western blot analysis; format: functional, cell-based; conditions: dose 0.5-8 µM
[5] = system: HGC-27; assay: Induction of apoptosis in human HGC-27 cells assessed as early apoptotic cells at 2 uM incubated for 48 hrs by annexin V FITC/propidium iodide staining based flow cytometry (reference value: 0.66 %); format: functional
[6] = system: HGC-27; assay: Induction of cell cycle arrest in human HGC-27 cells assessed as reduction in accumulation of cells at S phase at 0.5 to 8 uM incubated for 24 hrs by PI staining based flow cytometry analysis; format: functional; conditions: dose 0.5-8 µM
[7] = Acute toxicity in Kunming mouse assessed as effect on kidney pathology at 1000 mg/kg, po measured after 14 days; format: organism-based; conditions: in vivo, 336 h, time 14 day
[8] = system: HGC-27; assay: Induction of apoptosis in human HGC-27 cells assessed as early apoptotic cells at 0.1 uM incubated for 48 hrs by annexin V FITC/propidium iodide staining based flow cytometry (reference value: 0.66 %); format: functional
[9] = system: HGC-27; assay: Induction of apoptosis in human HGC-27 cells assessed as late apoptotic cells at 0.1 uM incubated for 48 hrs by annexin V FITC/propidium iodide staining based flow cytometry (reference value: 5.14 %); format: functional
[10] = system: HGC-27; assay: Induction of cell cycle arrest in human HGC-27 cells assessed as upregulation of p21 expression at 0.1 to 1.6 uM incubated for 48 hrs by Western blot analysis; format: functional, cell-based; conditions: dose 0.1-1.6 µM
[11] = system: MGC-803; assay: Induction of apoptosis in human MGC-803 cells assessed as necrotic cells at 20 uM incubated for 48 hrs by annexin V FITC/propidium iodide staining based flow cytometry (reference value: 1.06 %); format: functional
[12] = system: HGC-27; assay: Induction of apoptosis in human HGC-27 cells assessed as upregulation in Bax expression at 0.1 to 1.6 uM incubated for 48 hrs by Western blot analysis; format: functional, cell-based; conditions: dose 0.1-1.6 µM
[13] = system: MGC-803; assay: cells; format: functional, cell-based; conditions: Homo sapiens, MGC-803, 72 h
Description: Cytotoxicity against human MGC-803 cells assessed as inhibition of cell growth incubated for 72 hrs by MTT assay

[14] = system: MGC-803; assay: Induction of apoptosis in human MGC-803 cells assessed as early apoptotic cells at 20 uM incubated for 48 hrs by annexin V FITC/propidium iodide staining based flow cytometry (reference value: 0.42 %); format: functional
[15] = system: BGC-823; assay: cells; format: functional, cell-based; conditions: Homo sapiens, BGC-823, 72 h
Description: Cytotoxicity against human BGC-823 cells assessed as inhibition of cell growth incubated for 72 hrs by MTT assay

[16] = Toxicity in BALB/c mouse xenografted with human HGC-27 cells assessed as monocyte level at 150 mg/kg, po bid for 19 days; format: organism-based; conditions: in vivo, 456 h, time 19 day
[17] = system: HGC-27; assay: Induction of apoptosis in human HGC-27 cells assessed as viable cells at 1.6 uM incubated for 48 hrs by annexin V FITC/propidium iodide staining based flow cytometry (reference value: 93.0 %); format: functional; conditions: read-out: Activity
[18] = Toxicity in BALB/c mouse xenografted with human HGC-27 cells assessed as granulocyte level at 150 mg/kg, po bid for 19 days; format: organism-based; conditions: in vivo, 456 h, time 19 day
[19] = Toxicity in BALB/c mouse xenografted with human HGC-27 cells assessed as granulocyte level at 75 mg/kg, po bid for 19 days; format: organism-based; conditions: in vivo, 456 h, time 19 day

For `O=C(NCc1ccc(NC(=O)c2ccccc2N2CCCC2)cc1)OCc1cccnc1`, which Activity [1] is on record?
The Activity was 0.92%.

And the Activity [2]?
The Activity was “Active”.

What about the viability at 0.5 µM [3] of the same compound?
Its viability at 0.5 µM is 79.1%.

And the Activity [4]?
Its Activity is “Active”.

And the Activity [5]?
The Activity was 1.59%.

What about the Activity [6] of the same compound?
Its Activity is “Active”.

Which results are given for `O=C(NCc1ccc(NC(=O)c2cc(F)ccc2N2CCCC2)cc1)OCc1cccnc1`?
Activity [7]: Non-Toxic; Activity [8]: 1.43%; Activity [9]: 14.2%; Activity [10]: Active; Activity [11]: 2.74%; Activity [12]: Active; IC50 [13]: 10.7 µM; Activity [14]: 16.8%; IC50 [15]: 14.8 µM; Activity [16]: 1.7 10^9/L and 2.13%; viability at 1.6 µM [17]: 13.4%; Activity [18]: 72.9 10^9/L and 90.67%; Activity [19]: 91.4%
